Measurements as given in BindingDB's records for patent US10457686 (Hoffmann-La Roche Inc., 2019).

Target: Cannabinoid receptor 1 (Homo sapiens, UniProt P21554)
Sequence (P21554 whole entry): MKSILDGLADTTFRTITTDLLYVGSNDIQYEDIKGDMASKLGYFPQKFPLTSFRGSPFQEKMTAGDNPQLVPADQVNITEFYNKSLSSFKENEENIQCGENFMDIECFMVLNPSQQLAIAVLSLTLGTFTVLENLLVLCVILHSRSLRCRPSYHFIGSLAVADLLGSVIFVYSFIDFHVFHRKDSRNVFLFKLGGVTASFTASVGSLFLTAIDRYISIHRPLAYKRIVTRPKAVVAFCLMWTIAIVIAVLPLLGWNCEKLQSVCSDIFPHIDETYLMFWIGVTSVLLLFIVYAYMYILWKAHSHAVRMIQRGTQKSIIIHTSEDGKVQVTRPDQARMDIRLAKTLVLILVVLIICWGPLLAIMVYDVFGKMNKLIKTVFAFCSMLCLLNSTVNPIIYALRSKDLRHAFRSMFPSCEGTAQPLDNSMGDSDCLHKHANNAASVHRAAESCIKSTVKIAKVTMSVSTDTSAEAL

CC(C)(C)c1nc(N2CCC(F)(F)C2)c2nn(Cc3ccc(C4(C(F)(F)F)N=N4)cc3Cl)nc2n1 [US10457686, Example 1]
Ki: > 10 µM
